# Results from article PMC8394532, “Structural and Functional Insights into the Biofilm-Associated BceF Tyrosine Kinase Domain from Burkholderia cepacia” (Biomolecules, 2021).
# B1: BceF kinase domain (residues 471-741) from Burkholderia cepacia (domain or fragment)
# chain: RRNMFQGIEDPDRIERAFNLPLYGLVPQSAEQVKLDAQAEKSGSRTRPILASLRPKDLSVESLRSLRTAMQFAMMDAKNRVIVLTGPTPGIGKSFLTVNLAVLLAHSGKRVLLIDADMRRGLLDRYFGLTSQPGLSELLSDQSALEDAVRETPVQGLSFISAGTRPPNPSELLMSTRLPQYLEGLGKRYDVVLIDSPPVLAVTDATIIGRMAGSTFLVLRSGMHTEGEIADAIKRLRTAGVDLEGGIFNGVPPKARGYGRGYAAVHEYLSA
# modifications: partly phosphotyrosine in the C-terminal tail 725-741 (MS/MS: 28% non-phosphorylated, 68% monophosphorylated mostly at the third tyrosine, position 14 of the peptide)
# notes: His6 tag and TEV site at the N-terminus; cleaved with TEV in the preparation for crystallisation; also called isolated BceF kinase domain; BceF tyrosine kinase domain; source: E. coli BL21(DE3), purified (HisTrap, TEV cleavage, second HisTrap, SEC Superdex 200); not shown: His6, N-terminal, cleaved
# Tests used:
# BceF kinase domain [1] = biological target: T1, BceF kinase domain (Burkholderia cepacia, UniProt Q0GYW2); experiment: X-ray crystal structure, […] Å; format: binding; conditions: endogenous ADP co-purified from E. coli; active site; crystals pH 5.5
# T1 construct: cytoplasmic kinase domain, residues 471-741; synthetic codon-optimised gene, N-terminal His6-TEV; E. coli BL21(DE3); partly phosphorylated C-terminal tyrosines
# BceF kinase domain [2] = biological target: T1, BceF kinase domain; experiment: microscale thermophoresis, NT-647 labelled protein; format: binding
# [3] = biological target: the molecule itself; experiment: SEC-MALS; Superdex 75 10/300 column, miniDAWN TREOS and Optilab T-rEX; SEC analysis at pH 7.5; single species of 59.1 kDa against a calculated monomer of 29.4 kDa
molecule,measurement,setting,value
Nc1ncnc2c1ncn2[C@@H]1O[C@H](COP(=O)(O)OP(=O)(O)O)[C@@H](O)[C@H]1O [ADP],"X-ray crystal structure, 1.85 Å",BceF kinase domain [1],The structure revealed an adenosine diphosphate (ADP) molecule bound at the active site
Nc1ncnc2c1ncn2[C@@H]1O[C@H](COP(=O)(O)OP(=O)(O)NP(=O)(O)O)[C@@H](O)[C@H]1O [AMP-PNP],Kd,BceF kinase domain [2],1.64 ± 0.22 mM
B1,stoichiometry N,[3],2
